# Measurements published in patent publication US11083707B2, “Substituted indoline derivatives as dengue viral replication inhibitors” (JANSSEN PHARMACEUTICALS, INC., priority 2017, dated 2021).
# Like-named read-outs stand apart in the source and are kept apart here.
# How the values were obtained:
# [1] = system: DENV-2 16681 strain; experiment: DENV-2 antiviral assay (eGFP fluorescence, Vero cells); assay type: cell-based, Dengue virus; settings: DENV-2 16681 eGFP, MOI 0.5, 3 days
# Procedure: The antiviral activity of all the compounds of the invention was tested against the DENV-2 16681 strain which was labeled with enhanced green fluorescent protein (eGPF). The culture medium consists of minimal essential medium supplemented with 2% of heat-inactivated fetal calf serum, 0.04% gentamycin (50 mg/mL) and 2 mM of L-glutamine. Vero cells, obtained from ECACC, were suspended in culture medium and 25 μL was added to 384-well plates (2500 cells/well), which already contain the antiviral compounds. Typically, these plates contain a 5-fold serial dilution of 9 dilution steps of the test compound at 200 times the final concentration in 100% DMSO (200 nL). […] Finally, each plate contains wells which are assigned as virus controls (containing cells and virus in the absence of compound), cell controls (containing cells in the absence of virus and compound) and medium controls (containing medium in the absence of cells, virus and compounds). To the wells assigned as medium control, 25 μL of culture medium was added instead of Vero cells. Once the cells were added to the plates, the plates were incubated for 30 minutes at room temperature to allow the cells to distribute evenly within the wells. Next, the plates were incubated in a fully humidified incubator (37° C., 5% CO2) until the next day. Then, DENV-2 strain 16681, labeled with eGFP, was added at a multiplicity of infection (MOI) of 0.5. Therefore, 15 μL of virus suspension was added to all the wells containing test compound and to the wells assigned as virus control. In parallel, 15 μL of culture medium was added to the medium and cell controls. Next, the plates were incubated for 3 days in a fully humidified incubator (37° C., 5% CO2). At the day of the read out, the eGFP fluorescence was measured using an automated fluorescence microscope at 488 nm (blue laser). Using an in-house LIMS system, inhibition dose response curves for each compound were calculated and the half maximal effective concentration (EC50) was determined. Therefore, the percent inhibition (I) for every test concentration is calculated using the following formula: I=100*(ST-SCC)/(SVC-SCC), ST, SCC and SVC are the amount of eGFP signal in the test compound, cell control and virus control wells, respectively. The EC50 represents the concentration of a compound at which the virus replication is inhibited with 50%, as measured by a 50% reduction of the eGFP fluorescent intensity compared to the virus control. The EC50 is calculated using linear interpolation (Table 1).
# [2] = system: DENV-1 strain TC974#666; experiment: Tetravalent RT-qPCR assay Protocol A, serotype 1; assay type: cell-based; settings: Dengue virus, DENV1, 72 h; RT-qPCR serotype 1 TC974#666, Vero cells, day 3
# Procedure: (§1) The antiviral activity of the compounds of the invention was tested against DENV-1 strain TC974#666 (NCPV), DENV-2 strain 16681, DENV-3 strain H87 (NCPV) and DENV-4 strain H241 (NCPV) in a RT-qPCR assay. Therefore, Vero cells were infected with either DENV-1, or -2, or -3, or -4 in the presence or absence of test compounds. At day 3 post-infection, the cells were lysed and cell lysates were used to prepare cDNA of both a viral target (the 3′UTR of DENV; Table 2) and a cellular reference gene (β-actin, Table 2). Subsequently, a duplex real time PCR was performed on a Lightcycler480 instrument. The generated Cp value is inversely proportional to the amount of RNA expression of these targets. Inhibition of DENV replication by a test compound results in a shift of Cp's for the 3′UTR gene. On the other hand, if a test compound is toxic to the cells, a similar effect on β-actin expression will be observed. The comparative ΔΔCp method is used to calculate EC50, which is based on the relative gene expression of the target gene (3′UTR) normalized with the cellular housekeeping gene (β-actin). In addition, CC50 values are determined based on the Cp values acquired for the housekeeping gene β-actin.
# (§2) The culture medium consisted of minimal essential medium supplemented with 2% of heat-inactivated fetal calf serum, 0.04% gentamycin (50 mg/mL) and 2 mM of L-glutamine. Vero cells, obtained from ECACC, were suspended in culture medium and 75 μL/well was added in 96-well plates (10000 cells/well), which already contain the antiviral compounds. […] In addition, each plate contains wells which are assigned as virus controls (containing cells and virus in the absence of compound) and cell controls (containing cells in the absence of virus and compound). Once the cells were added in the plates, the plates were incubated in a fully humidified incubator (37° C., 5% CO2) until the next day. Dengue viruses serotype-1, 2, 3 and 4 were diluted in order to obtain a Cp of ˜22-24 in the assay. Therefore, 25 μL of virus suspension was added to all the wells containing test compound and to the wells assigned as virus control. In parallel, 25 μL of culture medium was added to the cell controls. Next, the plates were incubated for 3 days in a fully humidified incubator (37° C., 5% CO2). After 3 days, the supernatant was removed from the wells and the cells were washed twice with ice-cold PBS (˜100 μL). The cell pellets within the 96-well plates were stored at −80° C. for at least 1 day. Next, RNA was extracted using the Cells-to-CT™ lysis kit, according to the manufacturer's guideline (Life Technologies). The cell lysates can be stored at −80° C. or immediately used in the reverse transcription step.
# (§3) In preparation of the reverse transcription step, mix A (table 3A) was prepared and 7.57 μL/well was dispensed in a 96-well plate. After addition of 5 μL of the cell lysates, a five minute denaturation step at 75° C. was performed (table 3B). Afterwards, 7.43 μL of mix B was added (table 3C) and the reverse transcription step was initiated (table 3D) to generate cDNA.
# (§4) Finally, a RT-qPCR mix was prepared, mix C (table 4A), and 22.02 μL/well was dispensed in 96-well LightCycler qPCR plates to which 3 μL of cDNA was added and the qPCR was performed according to the conditions in table 4B on a LightCycler 480.
# (§5) Using the LightCycler software and an in-house LIMS system, dose response curves for each compound were calculated and the half maximal effective concentration (EC50) and the half maximal cytotoxic concentration (CC50) were determined (Tables 5-8).
# [3] = system: DENV-2 strain 16681; experiment: Tetravalent RT-qPCR assay Protocol A, serotype 2; assay type: cell-based; settings: Dengue virus
# Procedure: as §1, §2, §3, §4, §5
# [4] = system: DENV-3 strain H87; experiment: Tetravalent RT-qPCR assay Protocol A, serotype 3; assay type: cell-based; settings: Dengue virus, DENV3, 72 h; RT-qPCR serotype 3 H87, Vero cells, day 3
# Procedure: as §1, §2, §3, §4, §5
# [5] = system: DENV-4 strain H241; experiment: Tetravalent RT-qPCR assay Protocol A, serotype 4; assay type: cell-based; settings: Dengue virus, DENV4, 72 h; RT-qPCR serotype 4 H241, Vero cells, day 3
# Procedure: as §1, §2, §3, §4, §5
# [6] = in vitro; assay type: cell-based; settings: African green monkey
# Procedure: as §1, §2, §3, §4, §5
# [7] = system: Vero cells; settings: African green monkey
# [8] = in vitro; settings: African green monkey
# [9] = DENV2, 72 h, RT-qPCR serotype 2 16681, Vero cells, day 3, read-out: EC50
Structure (SMILES),EC50 [1] [nM],EC50 [2] [nM],"EC50 [3, 9] [nM]",EC50 [4] [nM],EC50 [5] [nM],CC50 at 3 days [6] [nM],CC50 [7] [nM],"EC50 ([3]; DENV2, Vero, 72 h) [nM]",CC50 [8] [nM]
"COc1cc(NC(C(=O)N2CCc3ccc(C(F)(F)F)cc32)c2ccc(Cl)cc2OCCCC(=O)O)cc(-n2cncn2)c1 (single isomer, unassigned) [Compound 11B]",0.2,0.095,0.059,6.5,20,> 2500,12000,–,–
"COc1cc(NC(C(=O)N2CCc3cc(OC)c(OC(F)(F)F)cc32)c2ccc(Cl)cc2OCCO)cc(-n2cncn2)c1 (single isomer, unassigned) [Compound 8A]",1.5,2,–,15,56,–,–,0.38,12000
"COc1cc(NC(C(=O)N2CCc3ccc(OC(F)(F)F)cc32)c2ccc(Cl)cc2OCCC(C)(C)C(=O)O)cc(-n2cncn2)c1 (single isomer, unassigned) [Compound 14B]",0.27,0.22,–,5.5,23,2300,9400,0.16,–
"COc1cc(NC(C(=O)N2CCc3ccc(C(F)(F)F)cc32)c2ccc(F)cc2OCCO)cc(-n2cncn2)c1 (single isomer, unassigned) [Compound 1B]",2.8,1.5,2.4,25,180,> 2500,9800,–,–
"COc1cc(NC(C(=O)N2CCc3cc(OC)c(C(F)(F)F)cc32)c2ccc(F)cc2OCCO)cc(-n2cncn2)c1 (single isomer, unassigned) [Compound 2B]",1.8,6,2.1,38,150,> 2500,10000,–,–
"COc1cc(NC(C(=O)N2CCc3ccc(OC(F)(F)F)cc32)c2ccc(Cl)cc2OCCO)cc(-n2cncn2)c1 (single isomer, unassigned) [Compound 6A]",0.59,0.64,0.49,8.1,60,–,–,–,8500
"COc1cc(NC(C(=O)N2CCc3ccc(OC(F)(F)F)cc32)c2ccc(Cl)cc2OCCCC(=O)O)cc(-n2cncn2)c1 (single isomer, unassigned) [Compound 13A]",0.12,0.12,0.057,1.8,10,> 2500,–,–,12000
"COc1cc(NC(C(=O)N2CCc3cc(F)c(C(F)(F)F)cc32)c2ccc(Cl)cc2OCCO)cc(-n2cncn2)c1 (single isomer, unassigned) [Compound 7B]",1.8,0.88,1.9,13,120,–,7600,–,–
"COc1cc(NC(C(=O)N2CCc3ccc(OC(F)(F)F)cc32)c2ccc(F)cc2OCCO)cc(-n2cncn2)c1 (single isomer, unassigned) [Compound 3B]",0.99,2.4,1.4,23,98,–,8700,–,–
"COc1cc(NC(C(=O)N2CCc3cc(F)c(OC(F)(F)F)cc32)c2ccc(Cl)cc2OCCO)cc(-n2cncn2)c1 (single isomer, unassigned) [Compound 9B]",0.6,0.99,0.47,6.4,87,–,10000,–,–
"COc1cc(NC(C(=O)N2CCc3c(C)cc(OC(F)(F)F)cc32)c2ccc(Cl)cc2OCCCC(=O)O)cc(-n2cncn2)c1 (single isomer, unassigned) [Compound 16B]",0.069,0.092,0.055,0.87,5.3,> 1000,6200,–,–
"COc1cc(NC(C(=O)N2CCc3cc(OC)c(C(F)(F)F)cc32)c2ccc(Cl)cc2OCCO)cc(-n2cncn2)c1 (single isomer, unassigned) [Compound 5B]",0.62,2,0.52,15,90,> 2500,9200,–,–
"COc1cc(NC(C(=O)N2CCc3cc(F)c(OC(F)(F)F)cc32)c2ccc(Cl)cc2OCCCC(=O)O)cc(-n2cncn2)c1 (single isomer, unassigned) [Compound 15B]",0.13,0.13,–,2.8,15,–,11000,0.1,–
"COc1cc(NC(C(=O)N2CCc3cc(OC)c(C(F)(F)F)cc32)c2ccc(Cl)cc2OCCCC(=O)O)cc(-n2cncn2)c1 (single isomer, unassigned) [Compound 12A]",1.2,2.1,0.42,36,100,–,–,–,13000
"COc1cc(NC(C(=O)N2CCc3c(C)cc(OC(F)(F)F)cc32)c2ccc(Cl)cc2OCCO)cc(-n2cncn2)c1 (single isomer, unassigned) [Compound 10B]",0.25,0.36,0.15,5.9,32,–,11000,–,–
"COc1cc(NC(C(=O)N2CCc3ccc(C(F)(F)F)cc32)c2ccc(Cl)cc2OCCO)cc(-n2cncn2)c1 (single isomer, unassigned) [Compound 4B]",1,0.57,0.45,11,76,> 2500,11000,–,–
